“And” between values parts separate entries of the source, which are not always exact repeats. Equal entries are not always repeated.
Tests used:
CYP2C8 [1] = target: T1, CYP2C8 (Homo sapiens, UniProt P10632); assay: Metabolism kinetics with recombinant CYP2C8; type: in vitro ADME; details: therapeutic range, up to 30 μM initial incubation concentration
T1 sequence (P10632 1-490): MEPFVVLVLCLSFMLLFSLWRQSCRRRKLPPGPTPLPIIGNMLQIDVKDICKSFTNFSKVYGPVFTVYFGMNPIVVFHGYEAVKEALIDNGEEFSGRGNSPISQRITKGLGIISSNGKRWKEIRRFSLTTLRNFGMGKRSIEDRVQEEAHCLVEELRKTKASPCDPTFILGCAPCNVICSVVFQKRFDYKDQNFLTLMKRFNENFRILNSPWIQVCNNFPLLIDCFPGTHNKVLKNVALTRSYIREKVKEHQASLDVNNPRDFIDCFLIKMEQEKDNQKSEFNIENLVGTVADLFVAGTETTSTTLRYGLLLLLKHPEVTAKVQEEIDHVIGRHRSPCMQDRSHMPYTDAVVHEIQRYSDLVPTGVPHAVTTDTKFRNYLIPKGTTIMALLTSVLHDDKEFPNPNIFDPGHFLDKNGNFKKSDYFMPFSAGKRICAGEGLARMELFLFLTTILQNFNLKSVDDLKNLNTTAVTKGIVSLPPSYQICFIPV
Description: (§1) CYP2C8 and CYP3A4 were identified in vitro as the major contributing enzymes of leriglitazone with CYP2C8 mostly responsible for the formation of the main metabolite M3. Kinetic parameters of human CYP2C8 and CYP3A4 mediated metabolism of leriglitazone were studied in in vitro studies using recombinant CYP3A4 and CYP2C8 enzymes (ADMESCOPE, Finland). […] As the disappearance of leriglitazone was very slow especially at high initial concentrations, the accuracy of the fit was not as good as based on M3 formation. […] Thus, it was not possible to fit the kinetic parameters Km and Vmax.

[2] = Population pharmacokinetic model of studies MT-1-01, MT-2-01, MT-2-03; type: in vivo, human
Description: MT-1-01 (healthy volunteers), MT-2-01 (adult men with adrenomyeloneuropathy (AMN), MT-2-03 (men, women≥12 years with Friedreich's Ataxia).
A total of 2140 valid plasma concentration measurements from 130 individuals were used in the analysis. Full PK profiles were available only from MT-1-01. In MT-2-03 only pre-dose (trough) concentrations were taken at multiple visits, while in MT-2-01 also sparse post-dose samples were taken. Less than 1% of all samples were below the limit of quantification.
2. Structural model-development using only data from healthy volunteers (MT-1-01) and inclusion of key structural covariates (food, body weight).
3. Re-estimation of parameters on the full analysis dataset (MT-1-01, MT-2-01, MT-2-03). Finalization of base model.
4. Stepwise automatic covariate modeling (SCM) using the base model.
NONMEM v7.5 was used for the population modelling. The RxODE package (v0.9.2) for R (v4.0.2) was used for the simulations.
Automated stepwise covariate modeling (SCM) using a forward addition/backward deletion procedure as implemented in PsN, Karlsson and Savic, C/in Pharmacol Ther 82:17-20 (2008), was applied to the base model on the complete analysis dataset. To improve the computation time of the SCM, PsN generates a linearized form of the model applying a Taylor-transformation on which then the covariate function is applied. Anderson et al., Annu Rev Pharmacol Toxicol 48:303-332 (2008). The final model from the SCM procedure was then rerun in its original, untransformed form.
The following covariates were tested in the model for their association with CL and relative bioavailability (F): • BMI • Height • Age • Ethnicity (Hispanic yes/no) • Sex

[3] = Adult PBPK model (Simcyp) development, simulation and verification; parameters: species or system human
Description: A PBPK model for leriglitazone HCl was developed with the Simcyp Population-Based Simulator Version 17 release 1.
A first-order absorption model with inputs based on clinical data was used to describe the absorption kinetics of the drug. Dose-dependent ka values were estimated from phase 1 SAD data and were incorporated to account for the less than dose proportional increase in the Cmax of leriglitazone as well as the negative food effect on the Cmax (Table 2).
A global scalar of 0.7 was applied to match the estimated value. The full PBPK model was applied in all simulations of the plasma concentration-time profiles of the drug in order to recover the shape of the concentration-time profiles.
Predictions of plasma concentration-time profiles and clearance were performed in the Simcyp Simulator using the default Sim-Healthy volunteer population, whose parameter values have been described previously. Howgate, E. M., et al., Xenobiotica Fate Foreign Compd. Biol. Syst. 36, 473-497 (2006); Inoue, S. et al., Xenobiotica Fate Foreign Compd. Biol. Syst. 36, 499-513 (2006). The trial design used for simulation of the plasma concentration-time profile of a single dose of leriglitazone in fasted and fed subjects was based on the phase 1 SAD results. Concentration-time profiles, using 10 virtual trials of 6 subjects (all male) aged 21 to 50 years receiving a single oral dose of 30, 90 or 270 mg under the fasted conditions and a single oral dose of 90 or 270 mg under fed conditions were simulated over a duration of 144 hours. Visual checks of the predicted concentration-time profiles were performed and the key PK parameters (AUC, Cmax and Tmax) were compared to those observed in the phase 1 study (Table 8).
The PBPK model was verified by comparing the predicted concentration-time profiles with the observed phase 1 MAD data. The trial design used for simulation was based on multiple doses of 135 mg or 270 mg in fed healthy subjects. […]

[4] = tested on: sandwich-cultured hepatocytes; assay: Biliary clearance in sandwich-cultured hepatocytes; type: in vitro ADME; details: after scaling up
[5] = Biliary clearance in sandwich-cultured hepatocytes; type: in vitro ADME; details: sandwich-cultured hepatocytes
CYP2C8 [6] = target: T1, CYP2C8; assay: CYP2C8 contribution to clearance (fm, CLint) for the PBPK model; details: before accounting for biliary and renal clearance
Description: as §1

contribution of CYP2C8, fraction metabolized (CYP2C8 [1]): around 70%
lower CL in women ([2]; popPK covariate sex): 14.7%
reduction of absorption rate when taken with food ([2]; popPK estimate): 82.9%
reduction of bioavailability by food ([2]; popPK estimate): 4.8% and < 5%
typical rate of absorption ([2]; taken without food, popPK estimate): 5.2 h⁻¹
renal clearance fraction (fe) ([3]; PBPK model): 5%
CLint, additional ([3]; PBPK model input): 0.281 µL/min/mg
share of metabolism, undefined metabolism ([3]; before accounting for biliary and renal clearance): 6%
biliary clearance as fraction of total clearance (feBIL) [4]: 19.5%
hepatocyte CLint [5]: 0.358 µL/min/1e6 cells
microsomal CLint [5]: 0.5 µL/min/mg
share of metabolism, CYP2C8 (CYP2C8 [6]): 63.7%
Structure (SMILES): CC(O)c1ccc(CCOc2ccc(CC3SC(=O)NC3=O)cc2)nc1 (stereo not drawn) [Leriglitazone, 5-[[4-[2-[5-(1-hydroxyethyl)pyridin-2-yl]ethoxy]phenyl]methyl]-1,3-thiazolidine-2,4-dione]

Reference: patent US20260207570A1, “OPTIMIZED DOSING OF LERIGLITAZONE” (MINORYX THERAPEUTICS S.L., priority 2022, published 2026)
